Results on 12 compounds are retold here after ChEMBL document CHEMBL1201862, “PubChem BioAssay data set” (2004).

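The compound was tested at five concentrations on cells cultured in 96-well plates, with a 48-hour exposure period. GI50 marks 50% less growth.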 Active and inactive are the calls of the source. Cut-off read from the data, not from the text of the source: active = GI50 up to about 1.1 µM and inactive = higher.

Test systems include A549; CCRF-CEM; EKVX; HCC 2998; HCT-15; MOLT-4; NCI-H226; NCI-H460; OVCAR-3; RPMI-8226; SF-268; SF-295; SK-MEL-28; SNB-19; SR; TK-10; DU-145; MCF7; MDA-MB-231.
Test in all cases: NCI-60 cell line screen, 48 h

Take `COc1ccc(C(=O)C(c2ccc(OC)cc2)C2(O)C(=O)Nc3c(C)cc(Cl)cc32)cc1` (stereo not given): the GI50 is > 100 µM (inactive) in the experiment on A549; 10.3 µM (inactive) with CCRF-CEM; > 100 µM (inactive) with EKVX; > 100 µM (inactive) in the experiment with HCC 2998; greater than 100 µM with HCT-15; 14.1 µM (inactive) in the experiment on MOLT-4. In addition, the GI50 is 76.6 µM (inactive) in the experiment with NCI-H226; > 100 µM (inactive) in the experiment with NCI-H460; 52 µM (inactive) in the experiment with OVCAR-3; 14.4 µM (inactive) in the experiment with RPMI-8226; 82.8 µM (inactive) in the experiment on SF-268; 54.8 µM (inactive) in the experiment on SF-295. Further, the GI50 in the experiment on SK-MEL-28 is > 100 µM (inactive); with SNB-19, > 100 µM (inactive); with SR, 12.5 µM (inactive); in the experiment on TK-10, > 100 µM (inactive).

As to `CCOC(=O)/C(=C\NCC(O)c1ccccc1)c1nc2ccccc2[nH]1` (stereo not given), the GI50 in the experiment on A549 is 33.7 µM (inactive); in the experiment on CCRF-CEM it was 13.6 µM (inactive); in the experiment with DU-145 it was 28.4 µM (inactive); in the experiment with EKVX, 21.3 µM (inactive); with HCC 2998, 20.4 µM (inactive); with HCT-15, 21.6 µM. For the same compound, the GI50 was 18.7 µM (inactive) in the experiment with MCF7; 11.8 µM (inactive) with MOLT-4; 17.2 µM (inactive) in the experiment on NCI-H460; 34.7 µM (inactive) in the experiment with OVCAR-3; 11.3 µM (inactive) in the experiment with RPMI-8226; 17.3 µM (inactive) with SF-268. Besides, the GI50 in the experiment with SF-295 is 24.8 µM (inactive); in the experiment with SK-MEL-28, 17.2 µM (inactive); in the experiment on SNB-19, 48.9 µM (inactive); in the experiment with SR, 17.5 µM (inactive); in the experiment with TK-10, 26.1 µM (inactive).

`O=C(/C=C/c1ccc2c(c1)OCO2)c1ccccc(=O)c1O`: the GI50 was 0.0376 µM (active) in the experiment on CCRF-CEM; 17.3 µM (inactive) in the experiment with DU-145; 20.7 µM (inactive) with EKVX; 3.85 µM with HCT-15; 37.9 µM (inactive) in the experiment with MDA-MB-231; 6.27 µM (inactive) in the experiment with MOLT-4. In addition, the GI50 was 35.6 µM (inactive) in the experiment on NCI-H226; 3.28 µM (inactive) in the experiment on NCI-H460; 10.7 µM (inactive) in the experiment with OVCAR-3; 7.14 µM (inactive) in the experiment with RPMI-8226; 3.42 µM (inactive) in the experiment with SF-268; 21.2 µM (inactive) in the experiment with SK-MEL-28. In addition, the GI50 in the experiment with SNB-19 was 8.71 µM (inactive); in the experiment on SR it was > 100 µM (inactive); in the experiment with TK-10, 18.8 µM (inactive).

In the case of `CCN(CC)C(=S)SS(=O)(=O)c1ccc(F)cc1`, the GI50 with DU-145 was 37.9 µM (inactive); with EKVX, > 100 µM (inactive); in the experiment on HCC 2998, > 100 µM (inactive); with HCT-15, 66.7 µM; in the experiment with MDA-MB-231, 32.4 µM (inactive); in the experiment with NCI-H226, > 100 µM (inactive). The GI50 with NCI-H460 is 42.9 µM (inactive); with OVCAR-3, > 100 µM (inactive); in the experiment with RPMI-8226, 17.7 µM (inactive); with SF-268, > 100 µM (inactive); with SF-295 it was 75.3 µM (inactive); with SK-MEL-28, 14 µM (inactive). The GI50 in the experiment on SNB-19 was > 100 µM (inactive); with SR it was 0.348 µM (active); with TK-10 it was > 100 µM (inactive).

On to `CCCCC1=C(C(=O)N2CCOCC2)C2(OCCO2)C1=O`, for which the GI50 was 18 µM (inactive) with A549; 32.2 µM (inactive) in the experiment on CCRF-CEM; 33 µM (inactive) in the experiment with DU-145; 26.2 µM (inactive) in the experiment on EKVX; 18.2 µM in the experiment on HCT-15; 44.6 µM (inactive) in the experiment on MCF7. The GI50 in the experiment with MOLT-4 was 51.2 µM (inactive); in the experiment with NCI-H226, 2.86 µM (inactive); with NCI-H460 it was 24.8 µM (inactive); in the experiment with OVCAR-3, 19.5 µM (inactive); with SF-268, 24 µM (inactive); with SF-295 it was 32.5 µM (inactive). Moreover, the GI50 in the experiment with SK-MEL-28 is 27.5 µM (inactive); in the experiment on SNB-19, 14 µM (inactive); with SR, 83.8 µM (inactive); with TK-10, 33.3 µM (inactive).

As for `CN(C)CCNC(=O)Cn1cnc2cccc([N+](=O)[O-])c2c1=O`, the GI50 with A549 was > 100 µM (inactive); with CCRF-CEM, > 100 µM (inactive); in the experiment with DU-145, > 100 µM (inactive); in the experiment on EKVX it was > 100 µM (inactive); in the experiment with HCC 2998, > 100 µM (inactive); in the experiment with HCT-15, greater than 100 µM. Further, the GI50 in the experiment with MCF7, in the experiment on MOLT-4, in the experiment on NCI-H226, in the experiment on NCI-H460, in the experiment on OVCAR-3 and in the experiment with RPMI-8226 was > 100 µM (inactive) in each case. Moreover, the GI50 in the experiment on SF-268, in the experiment with SF-295, in the experiment on SK-MEL-28, with SNB-19, in the experiment with SR and in the experiment with TK-10 was > 100 µM (inactive) throughout.

In the case of `CC1CCC/C1=C(/I)C(=O)c1ccccc1` (stereo not given), the GI50 in the experiment with A549 is 98.2 µM (inactive); in the experiment on CCRF-CEM it was 30.4 µM (inactive); in the experiment with DU-145 it was > 100 µM (inactive); in the experiment with EKVX, > 100 µM (inactive); in the experiment with HCC 2998, > 100 µM (inactive); in the experiment with HCT-15 it was greater than 100 µM. In addition, the GI50 is 40.2 µM (inactive) with MDA-MB-231; 19.2 µM (inactive) in the experiment with MOLT-4; 60.7 µM (inactive) with NCI-H226; > 100 µM (inactive) with NCI-H460; 55.3 µM (inactive) in the experiment on RPMI-8226; > 100 µM (inactive) with SF-268. Besides, the GI50 in the experiment with SF-295 is 27 µM (inactive); with SK-MEL-28, > 100 µM (inactive); in the experiment on SNB-19, > 100 µM (inactive); in the experiment with SR, 30.8 µM (inactive); with TK-10, > 100 µM (inactive).

As to `CC1(C)CC(=O)c2c(nc3c(ccc4ccccc43)c2-c2ccc(NC(=O)CCCCC(=O)Nc3ccc(-c4c5c(nc6c4ccc4ccccc46)CC(C)(C)CC5=O)cc3)cc2)C1`, the GI50 with A549 is 53.7 µM (inactive); with CCRF-CEM, 20.7 µM (inactive); in the experiment on DU-145, 36.1 µM (inactive); in the experiment on EKVX it was 21.2 µM (inactive); with HCT-15, 27.7 µM; in the experiment on MCF7, 32.2 µM (inactive). Moreover, the GI50 in the experiment on MDA-MB-231 was 19.3 µM (inactive); in the experiment on MOLT-4, 13.7 µM (inactive); in the experiment on NCI-H226 it was 15.2 µM (inactive); in the experiment on NCI-H460, 27.7 µM (inactive); in the experiment on OVCAR-3 it was 25.6 µM (inactive); with RPMI-8226, 18.8 µM (inactive). Besides, the GI50 is 28.2 µM (inactive) in the experiment on SF-268; 19.6 µM (inactive) in the experiment with SF-295; 34 µM (inactive) in the experiment with SK-MEL-28; 69.2 µM (inactive) in the experiment on SNB-19; 48.6 µM (inactive) in the experiment with TK-10.

Take `COc1cc2cc(C(=O)N3CC(CCl)c4c3cc(O)c3ccccc43)[nH]c2c(OC)c1OC` (stereo not given): the GI50 was < 0.005 µM (active) with A549; < 0.005 µM (active) with CCRF-CEM; < 0.005 µM (active) in the experiment with DU-145; < 0.005 µM (active) in the experiment on EKVX; < 0.005 µM (active) with HCC 2998; less than 0.005 µM with HCT-15. The GI50 in the experiment with MOLT-4, in the experiment with NCI-H226, in the experiment with NCI-H460, in the experiment with OVCAR-3, in the experiment on RPMI-8226 and in the experiment with SF-268 was < 0.005 µM (active) each time. In addition, the GI50 in the experiment with SF-295, in the experiment on SK-MEL-28, in the experiment with SNB-19, in the experiment on SR and in the experiment on TK-10 was < 0.005 µM (active) in each case.

Turning to `CC(C)O/C=C1\C(=O)C2(SCCS2)[C@H]2CCCC[C@@H]12`, the GI50 was 37.9 µM (inactive) with A549; 25.5 µM (inactive) with CCRF-CEM; 66.4 µM (inactive) in the experiment on HCC 2998; 33.9 µM in the experiment with HCT-15; 16.2 µM (inactive) in the experiment with MOLT-4; 84.1 µM (inactive) in the experiment on NCI-H226. The GI50 in the experiment with NCI-H460 was 33.7 µM (inactive); in the experiment on RPMI-8226, 25.4 µM (inactive); in the experiment on SF-268, 39 µM (inactive); in the experiment with SK-MEL-28, > 100 µM (inactive); with SNB-19, 39.5 µM (inactive); in the experiment with SR it was 48.9 µM (inactive). The GI50 in the experiment on TK-10 was 43 µM (inactive).

Regarding `CC(C)(C)[Si](C)(C)OCc1cccc(OCCOc2cccc(CO[Si](C)(C)C(C)(C)C)c2[N+](=O)[O-])c1[N+](=O)[O-]`, the GI50 was > 100 µM (inactive) in the experiment with A549; > 100 µM (inactive) in the experiment with CCRF-CEM; > 100 µM (inactive) in the experiment with DU-145; > 100 µM (inactive) in the experiment with EKVX; greater than 100 µM in the experiment with HCT-15; > 100 µM (inactive) with MCF7. For the same compound, the GI50 with MOLT-4, with NCI-H226, in the experiment on NCI-H460, in the experiment with OVCAR-3, in the experiment with SF-268 and in the experiment on SF-295 was > 100 µM (inactive) in each case. Also, the GI50 in the experiment with SK-MEL-28 was > 100 µM (inactive); with SNB-19, > 100 µM (inactive); in the experiment on SR, 66.2 µM (inactive); in the experiment on TK-10 it was > 100 µM (inactive).

As for `CCCCOC(=O)NC(Nc1ccc(S(=O)(=O)Nc2ncccn2)cc1)(C(F)(F)F)C(F)(F)F`, the GI50 was > 100 µM (inactive) with A549; 76 µM (inactive) with CCRF-CEM; > 100 µM (inactive) in the experiment on DU-145; > 100 µM (inactive) in the experiment with EKVX; 33.5 µM (inactive) with HCC 2998; greater than 100 µM in the experiment on HCT-15. Besides, the GI50 was > 100 µM (inactive) with MDA-MB-231; > 100 µM (inactive) in the experiment with MOLT-4; > 100 µM (inactive) in the experiment with NCI-H226; > 100 µM (inactive) in the experiment on NCI-H460; > 100 µM (inactive) in the experiment on OVCAR-3; 86.9 µM (inactive) in the experiment on RPMI-8226. Besides, the GI50 in the experiment with SF-268 was > 100 µM (inactive); in the experiment on SF-295, > 100 µM (inactive); with SK-MEL-28, > 100 µM (inactive); in the experiment on SNB-19 it was > 100 µM (inactive); in the experiment on SR, 78.2 µM (inactive); in the experiment on TK-10 it was > 100 µM (inactive).
